Laboratory results: publication PMC9673804, “Design, synthesis and antitumor evaluation of novel pyrazolo[3,4-d]pyrimidines incorporating different amino acid conjugates as potential DHFR inhibitors” (Journal of Enzyme Inhibition and Medicinal Chemistry, 2022)

Key:
[1] = test system: normal immortalised pancreatic cell line (HPDE); assay: SRB cytotoxicity assay, normal HPDE cells; type: cell-based; conditions: normal immortalized HPDE cell line
Description: (§1) The SRB colorimetric assay was employed to assess the synthesized compounds’ cytotoxic effects on several cancer cell lines (Table 1)[11–14]. […] Furthermore, the effect of tested compounds was evaluated on the normal immortalized HPDE cell line.
(§2) Sulforhodamine B (SRB) assay was employed to assay in-vitro antitumor activities of all the synthesised compounds as describer previously. […] The cell lines were obtained from the American Type Culture Collection (Rockville, USA).

[2] = test system: MCF-7 breast cancer cell line; assay: Annexin-V-FITC/PI cell apoptosis assay; type: cell-based, human; conditions: MCF-7, Annexin V-FITC/PI, 24 h
Description: Cell cycle analysis was done for the compound 7f against MCF-7 breast cancer cell line[11]^,[14]. Clearly, compound 7f enhanced the accumulation proportion of cells at the pre-G1 phase from 2.19 to 41.36%, and the accumulation percentages in S phase from 31.87 to 46.36%.
Flow cytometric analysis using Annexin-V-fluoresce in isothiocyanate (FITC) and propidium iodide (PI) staining kit (BD Pharmingen, San Diego, USA) was performed to assess the apoptosis. At 70% confluence, the cells were treated with compound 7f at different concentrations of (0–8 μmol/l) for 24 h. Then after trypsinization of cells, washing with PBS and centrifugation, the cells were mixed with FITC and PI in binding buffer. Becton Dickinson (Franklin Lakes, NJ, USA) was used to do the flow cytometry analysis[16]^,[17].

Bcl-2 [3] = assay: Western blot of Bcl-2 expression in MCF-7; type: cell-based, human
Description: The effect of compound 7f on the expression of DHFR, Casp3, Bax, and Bcl-2 proteins in MCF-7 cancer cells was evaluated by western blotting as previously performed. The cancer cells treated or untreated were collected were harvested and blotted on SDS-polyacrylamide gel and separated by Cleaver electrophoresis unit (Cleaver, UK), transferred onto polyvinylidene fluoride (PVDF) membranes (Millipore, USA) for 30 min using a Semi-dry Electroblotter (Biorad, USA) at 2.5 A and 25 V for 30 min. […] After washing, the chemiluminescent Western ECL substrate (Perkin Elmer, Waltham, MA, USA) was applied to the blot and then incubated for 1 min with a mixture of equal volumes from ECL solution A and ECL solution B. The chemiluminescent signals were captured using a CCD camera-based imager (Chemi Doc imager, Biorad, USA), and the bands intensities were then measured by Image J software program. […] For colorimetric assays two-way ANOVA test followed by Bonferroni posttest were used, while for quantification expression on western blot, student-t-test was used (significance p < 0.05). […]
Sodium dodecyl sulfate polyacrylamide gel electrophoresis (SDS-PAGE) is used to separate proteins based on their size. […] The secondary antibody is typically linked to an enzyme that produces luminescence upon the reaction with its substrate. […]

Bcl-2 [4] = assay: Bcl-2 ELISA in MCF-7; type: cell-based, human; conditions: dose-dependent
Description: (§3) The apoptotic effect of compound 7f on breast cancer cell line MCF-7 were evaluated by quantification of Bax, caspase 3/7, and Bcl-2 using Bax ELISA Kit ab199080 (ABCAM, Cambridge, UK), Caspase-Glo 3/7 assay kits (Promega, Fitchburg, MA, USA), and Bcl-2 ELISA Kit ab119506 (ABCAM, Cambridge, UK), according the instructions of manufacturers[11]^,[14]. The cells were treated with compounds 7f (½ IC50, IC50, or 2 ×IC50), and the activities were shown as a percentage change from the untreated control. The experiments were performed in triplicate applying two-way ANOVA test followed by Bonferroni posttest to evaluate the significance (p < 0.05).

[5] = test system: human hepatocellular carcinoma (HepG-2); assay: SRB cytotoxicity assay, HepG-2; type: cell-based; conditions: HepG2, HepG-2 cells
Description: as §1, §2

Bax = Bax ELISA in MCF-7; type: cell-based, human; conditions: ½ IC50, IC50, 2×IC50, dose dependent
Description: as §3

caspase 3/7 = assay: Caspase-Glo 3/7 assay in MCF-7; type: cell-based, human; conditions: ½ IC50, IC50, 2×IC50, dose dependent
Description: as §3

[6] = test system: pancreatic human cancer cell lines (BxPC-3); assay: SRB cytotoxicity assay, BxPC-3; type: cell-based; conditions: BxPC-3 cells
Description: as §1, §2

[7] = test system: mammary gland breast cancer (MCF-7); assay: SRB cytotoxicity assay, MCF-7; type: cell-based; conditions: Homo sapiens, MCF7, MCF-7 cells
Description: as §1, §2

[8] = test system: cervical carcinoma (HeLa); assay: SRB cytotoxicity assay, HeLa; type: cell-based; conditions: Homo sapiens, HeLa cells

## N=C(N)NCCCC(NC(=O)c1ccc(Nc2ncnc3c2cnn3-c2ccccc2)cc1)C(=O)O (stereo not shown) [Compound 7f, 5-Guanidino-2-{4-[(1-phenyl-1H-pyrazolo[3,4-d]pyrimidin-4-yl)amino]benzamido}pentanoic acid]
[1]
  IC50: > 50 µM
[2]; control 0.13
  Apoptosis Late: 21.31%
[2]; control 0.66
  Apoptosis Early: 14.12%
[2]; control 1.4
  Necrosis: 5.93%
Bcl-2 [3]; MCF7 cells, Cont.MCF7 0.762
  western blotting OD Bcl2: 0.501 OD
Bcl-2 [3]; MCF-7, compound at IC50
  expression of Bcl-2 (western blot): significantly down-regulated the expression of Bcl-2
Bcl-2 [4]
  Bcl-2 production (ELISA): significantly reduced the Bcl-2 production
[5]
  IC50: 5.12 ± 0.01 µM
Bax
  release of Bax protein: significantly surge the release
Caspase 3/7
  release of caspase 3/7: significantly surge the release
[6]
  IC50: 7.09 ± 0.09 µM
[7]
  IC50: 4.65 ± 0.17 µM
[8]
  IC50: 6.99 ± 1.11 µM
